Data taken from patent US6177431A, “Tetrahydropyrimidine derivatives” (priority 1996, dated 2001).
Like-named read-outs stand apart in the source and are kept apart here.

Tests used:
[1] = test system: caterpillars of the owlet moth (Spodoptera frugiperda); assay: Spodoptera frugiperda test; assay type: in vivo; conditions: for destruction: after 3 days, active compound concentration 0.001%, cabbage leaves dipped; for mortality at 0.001 %: Spodoptera frugiperda, in Brassica oleracea, 72 h, read-out: destruction
[2] = test system: mustard beetle larvae (Phaedon cochleariae); assay: Phaedon larvae test; conditions: for mortality at 0.001 %: Phaedon cochleariae, in Brassica oleracea, 72 h, read-out: destruction
[3] = test system: larvae of the green rice leaf hopper (Nephotettix cincticeps); assay: Nephotettix test; assay type: in vivo; conditions: 144 h, read-out: destruction
From the text: (§1) Solvent: 7 parts by weight of dimethylformamide

[4] = test system: caterpillars of the diamondback moth (Plutella maculipennis); assay: Plutella test; assay type: in vivo; conditions: for mortality at 0.01 %: Plutella, in Brassica oleracea, 72 h, read-out: destruction
From the text: as §1

[5] = test system: green peach aphids (Myzus persicae); assay: Myzus test; assay type: in vivo; conditions: for mortality at 0.001 %: Myzus persicae, 24 h, read-out: destruction
From the text: as §1

[6] = Lg. P, octanol/water partition coefficient determined by reversed phase HPLC; assay type: physicochemical
From the text: *^) Lg. P = Logarithm of the partition coefficient P of the substance
between the solvents octanol and water, determined experimentally by […]

[7] = after 1 day, active compound concentration 0.001%, infested broad bean seedlings dipped
[8] = octanol/water, determined experimentally by reversed phase HPLC, read-out: Lg. P (logarithm of the partition coefficient P)

Compound	mortality at 0.001 % [1]	mortality at 0.001 % [2]	mortality at 0.0001 % [3]	mortality at 0.01 % [4]	also measured
CCC(C)(C)N1CC([N+](=O)[O-])=C2N(Cc3cnc(Cl)s3)CCN2C1 [(A), reference compound]					destruction [1]: no action; destruction ([2]; after 3 days, active compound concentration 0.001%, cabbage leaves dipped): no action
COC(CN1CC([N+](=O)[O-])=C2N(Cc3cnc(Cl)s3)CCN2C1)OC [(B), reference compound]	30%	30%			
CCCCCCN1CC([N+](=O)[O-])=C2N(Cc3cnc(Cl)s3)CCN2C1 [(C), reference compound]	30%	40%			
CN1CC([N+](=O)[O-])=C2N(Cc3cnc(Cl)s3)CCN2C1 [(D), reference compound]					destruction [1]: no action
CCOC(=O)CCN1CC([N+](=O)[O-])=C2N(Cc3ccc(Cl)nc3)CCN2C1 [(E), reference compound]		20%	20%		destruction ([4]; after 3 days, active compound concentration 0.01%, cabbage leaves dipped): no action; mortality at 0.001 % ([5]; in Vicia faba): 10%
O=[N+]([O-])C1=C2N(Cc3ccc(Cl)nc3)CCN2CN(Cc2ccc(Cl)cc2)C1 [(F), reference compound]					destruction [1]: no action; destruction [5, 7]: no action
CCOC(=O)CN1CC([N+](=O)[O-])=C2N(Cc3ccc(Cl)nc3)CCN2C1 [(G), reference compound]	30%				
COC(=O)CN1CC([N+](=O)[O-])=C2N(Cc3ccc(Cl)nc3)CCN2C1 [Example 1, 6,7-dihydro-1-(2-chloropyridin-5-yl-methyl)-6-methoxycarbonyl-methyl-8-nitro-(5H)-imidazolidino-[2,3-f]-pyrimidine]		100%		100%	mortality at 0.001 % ([5]; in Vicia faba): 99%
O=C(CN1CC([N+](=O)[O-])=C2N(Cc3ccc(Cl)nc3)CCN2C1)Nc1ccccc1 [Example 3]		100%			
O=C(O)CCCCCN1CC([N+](=O)[O-])=C2N(Cc3ccc(Cl)nc3)CCN2C1 [Example 4]		100%			chromatographic logP ([6]; reversed phase hplc): 1.07; mortality at 0.001 % ([5]; in Vicia faba): 80%
CCOC(=O)CCCN1CC([N+](=O)[O-])=C2N(Cc3ccc(Cl)nc3)CCN2C1 [Example 5]					chromatographic logP ([6]; reversed phase hplc): 0.94
COC(=O)CN1CC([N+](=O)[O-])=C2N(Cc3cnc(Cl)s3)CCN2C1 [Example 6]			100%	100%	mortality at 0.001 % ([5]; in Vicia faba): 90%
O=C(CN1CC([N+](=O)[O-])=C2N(Cc3ccc(Cl)nc3)CCN2C1)OCc1ccc(Cl)nc1 [Example 7]		100%	100%		
CC(C)OC(=O)CN1CC([N+](=O)[O-])=C2N(Cc3ccc(Cl)nc3)CCN2C1 [Example 9]	100%	100%	100%	100%	
Cc1ccc(COC(=O)CN2CC([N+](=O)[O-])=C3N(Cc4ccc(Cl)nc4)CCN3C2)cc1 [Example 10]	100%	100%	100%	100%	
CCCCCCCCOC(=O)CN1CC([N+](=O)[O-])=C2N(Cc3ccc(Cl)nc3)CCN2C1 [Example 11]	100%	100%		100%	
O=C(CN1CC([N+](=O)[O-])=C2N(Cc3ccc(Cl)nc3)CCN2C1)OCc1ccc(Cl)c(Cl)c1 [Example 12]	100%	100%		100%	
O=C(CN1CC([N+](=O)[O-])=C2N(Cc3ccc(Cl)nc3)CCN2C1)OCc1c(Cl)cccc1Cl [Example 13]				100%	
O=C(CN1CC([N+](=O)[O-])=C2N(Cc3ccc(Cl)nc3)CCN2C1)OCc1ccc(Cl)cc1Cl [Example 14]	100%	100%	100%	100%	
COC(=O)CCCN1CC([N+](=O)[O-])=C2N(Cc3ccc(Cl)nc3)CCN2C1 [Example 15]	100%		100%	100%	chromatographic logP ([6]; reversed phase hplc): 1.12; mortality at 0.001 % ([5]; in Vicia faba): 98%
COC(=O)CCCN1CC([N+](=O)[O-])=C2N(Cc3cnc(Cl)s3)CCN2C1 [Example 16]			100%		chromatographic logP [6, 8]: 1.13; mortality at 0.001 % [5, 7]: 90%
CCOC(=O)CCCN1CC([N+](=O)[O-])=C2N(Cc3cnc(Cl)s3)CCN2C1 [Example 17]			100%	100%	chromatographic logP [6, 8]: 1.35
COC(=O)CCCCN1CC([N+](=O)[O-])=C2N(Cc3ccc(Cl)nc3)CCN2C1 [Example 19]	100%	100%		100%	mortality at 0.001 % ([5]; in Vicia faba): 95%
COC(=O)CCCCCCCN1CC([N+](=O)[O-])=C2N(Cc3cnc(Cl)s3)CCN2C1 [Example 20]	100%	100%			mortality at 0.001 % [5, 7]: 100%
COC(=O)CCCCCCCN1CC([N+](=O)[O-])=C2N(Cc3ccc(Cl)nc3)CCN2C1 [Example 21]				100%	chromatographic logP [6, 8]: 1.73
CC(C)OC(=O)CCN1CC([N+](=O)[O-])=C2N(Cc3ccc(Cl)nc3)CCN2C1 [Example 23]		100%			chromatographic logP ([6]; reversed phase hplc): 1.51
CCOC(=O)C(Cc1ccccc1)N1CC([N+](=O)[O-])=C2N(Cc3ccc(Cl)nc3)CCN2C1 (stereo not shown) [Example 27]					chromatographic logP [6, 8]: 1.99
COC(=O)C(C(C)C)N1CC([N+](=O)[O-])=C2N(Cc3ccc(Cl)nc3)CCN2C1 (stereo not shown) [Example 28]					chromatographic logP ([6]; reversed phase hplc): 1.55
